Molecules are shown by their SMILES.

Assay [1] concerns the target T1, Tyrosine-protein phosphatase non-receptor type 1 (Rattus norvegicus) (UniProt P20417).
T1 sequence (whole entry): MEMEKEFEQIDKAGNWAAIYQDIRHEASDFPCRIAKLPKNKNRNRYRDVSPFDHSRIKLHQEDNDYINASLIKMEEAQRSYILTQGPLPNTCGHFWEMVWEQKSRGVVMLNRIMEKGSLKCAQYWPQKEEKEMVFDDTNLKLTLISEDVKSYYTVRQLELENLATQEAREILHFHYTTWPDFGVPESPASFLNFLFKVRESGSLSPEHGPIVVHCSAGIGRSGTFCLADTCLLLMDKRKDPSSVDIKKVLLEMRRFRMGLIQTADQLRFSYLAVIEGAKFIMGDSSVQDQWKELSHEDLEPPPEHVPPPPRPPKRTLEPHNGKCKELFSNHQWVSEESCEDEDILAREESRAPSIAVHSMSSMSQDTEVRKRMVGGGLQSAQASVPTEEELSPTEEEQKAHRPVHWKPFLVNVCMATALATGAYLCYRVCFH
Put plainly: Ratio of rosiglitazone activity to compound activity for inhibition of PTP1B in Rattus norvegicus (rat) L6 cells. Type of assay: cell-based.

The test system of assay [2] is Rattus norvegicus. Put plainly: Antihyperglycemic activity in sucrose-challenged streptozotocin-induced Rattus norvegicus Wistar albino (rat) diabetic model assessed as glucose reduction at 30 mg/kg measured at 24 hr relative to control. Type of assay: functional. Also noted: scale not given: the % may be the effect or the level left.
Assay [3] relates to Rattus norvegicus. Put plainly: Antihyperglycemic activity in sucrose-challenged streptozotocin-induced Rattus norvegicus Wistar albino (rat) diabetic model assessed as glucose reduction at 30 mg/kg measured at 5 hr relative to control. Also on record: scale not given: the % may be the effect or the level left. Type of assay: functional.
In assay [4] the target is T1, Tyrosine-protein phosphatase non-receptor type 1 (Rattus norvegicus). Put plainly: Inhibition of PTP1B in Rattus norvegicus (rat) L6 cells assessed as cellular 2-deoxy-D-[U-14C]glucose uptake at 10 to 50 uM after 18 hr relative to control. Type of assay: cell-based.
Assay [5] deals with Rattus norvegicus. Kind of assay: Antihyperglycemic activity in sucrose-loaded Rattus norvegicus Wistar albino (rat) diabetic model assessed as glucose reduction at 30 mg/kg measured at 5 hr relative to control. Format: functional. Also noted: scale not given: the % may be the effect or the level left.
Assay [6] concerns Rattus norvegicus. Put plainly: Antihyperglycemic activity in sucrose-loaded Rattus norvegicus Wistar albino (rat) diabetic model assessed as glucose reduction at 30 mg/kg measured at 24 hr relative to control. Type of assay: functional. Also noted: scale not given: the % may be the effect or the level left.
The target in assay [7] is T1, Tyrosine-protein phosphatase non-receptor type 1 (Rattus norvegicus). Put plainly: Ratio of metformin activity to compound activity for inhibition of PTP1B in Rattus norvegicus (rat) L6 cells. Format: cell-based.
The target in assay [8] is T2, Tyrosine-protein phosphatase non-receptor type 1 (Homo sapiens) (UniProt P18031).
T2 sequence (whole entry): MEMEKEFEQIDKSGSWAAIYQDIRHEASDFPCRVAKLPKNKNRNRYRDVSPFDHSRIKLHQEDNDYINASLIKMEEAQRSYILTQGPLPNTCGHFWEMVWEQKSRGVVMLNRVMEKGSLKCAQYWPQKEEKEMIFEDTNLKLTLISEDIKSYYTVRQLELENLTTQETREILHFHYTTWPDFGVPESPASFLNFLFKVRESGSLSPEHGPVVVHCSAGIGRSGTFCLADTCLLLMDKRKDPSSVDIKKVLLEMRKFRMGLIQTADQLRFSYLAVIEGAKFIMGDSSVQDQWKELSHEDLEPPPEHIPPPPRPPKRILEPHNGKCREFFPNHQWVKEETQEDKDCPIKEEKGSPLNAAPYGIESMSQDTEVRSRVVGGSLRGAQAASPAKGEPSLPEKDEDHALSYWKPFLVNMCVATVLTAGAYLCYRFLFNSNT
Put plainly: Inhibition of Homo sapiens (human) recombinant PTP1B at 10 uM relative to control.

The target of assay [9] is T1, Tyrosine-protein phosphatase non-receptor type 1 (Rattus norvegicus). Put plainly: Inhibition of PTP1B in Rattus norvegicus (rat) L6 cells assessed as cellular 2-deoxy-D-[U-14C]glucose uptake at 500 uM after 18 hr relative to control. Type of assay: cell-based.

As for `O=C(CSc1nc2ccccc2[nH]1)Nc1cccc(C(=O)O)c1`, the Ratio in [1] is 10; in assay [7] it was 50. Moreover, the Activity in assay [2] was 45%; in assay [3] it was 48%; in assay [5] it was 32%; in [6], 33%. Also, the inhibition worked out at 18.5% in assay [4] and 24.2% in [8].

In the case of `Cc1ccc(C(=O)Nc2ccc(S(=O)(=O)O)c3cc(S(=O)(=O)O)cc(S(=O)(=O)O)c23)cc1NC(=O)c1cccc(NC(=O)Nc2cccc(C(=O)Nc3cc(C(=O)Nc4ccc(S(=O)(=O)O)c5cc(S(=O)(=O)O)cc(S(=O)(=O)O)c45)ccc3C)c2)c1`, in assay [8], the inhibition was determined as 20%.

For the molecule `CN(C)C(=N)NC(=N)N` [METFORMIN], the Activity in [2] was found to be 17%; in assay [3], 18%; in assay [5], 13%; in [6] it was 17%. Also, the inhibition in assay [9] came to 30.2%.

In the case of `CN(CCOc1ccc(CC2SC(=O)NC2=O)cc1)c1ccccn1` (stereo not drawn) [ROSIGLITAZONE], the Activity turned out to be 24% in [2], 21% in [3], 23% in assay [5] and 26% in assay [6].

In general, inhibition refers to the change of the read-out against control, counted positive when it falls.

(Values after ChEMBL document CHEMBL3046186, “Identification of ZINC02765569: a potent inhibitor of PTP1B by vHTS” (2013).)
